Type in all cases: in vivo
The test system of test [1] is Lolium perenne (LOLPE). Description: Example B post-emergence herbicidal test, LOLPE. To be noted: Lolium perenne, 312 h, rate 250 g/ha, evaluated after 13 days, scale 0-100, read-out: Post-emergence activity LOLPE (100=total damage to plant; 0=no damage to plant). The essentials: (§1)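 Score: 0 = no damage, 100 = total damage, assessed 13 days post-spray. Plants sprayed 8 days after sowing with aqueous dilution of acetone/water (50:50) formulation containing 0.5% Tween 20.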

In test [2] the test system is Alopecurus myosuroides (ALOMY). Description: Example B post-emergence herbicidal test, ALOMY. As to conditions: Alopecurus myosuroides, 312 h, rate 250 g/ha, evaluated after 13 days, scale 0-100, read-out: Post-emergence activity ALOMY (100=total damage to plant; 0=no damage to plant). The essentials:
as §1

In test [3] the test system is Avena fatua (AVEFA). Description: Example B post-emergence herbicidal test, AVEFA. To be noted: Avena fatua, 312 h, rate 250 g/ha, evaluated after 13 days, scale 0-100, read-out: Post-emergence activity AVEFA (100=total damage to plant; 0=no damage to plant). The essentials: as §1
In test [4] the test system is Echinochloa crus-galli (ECHCG). Description: Example B pre-emergence herbicidal test, ECHCG. To be noted: Echinochloa crus-galli, 312 h, rate 250 g/ha, evaluated after 13 days, 100=total damage to plant, 0=no damage to plant. The essentials: (§2)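 Plants were rated 13 days after treatment, 0 = no damage to 100 = total damage. They were grown in a glasshouse at 24/16 °C, 14 h light, 65% humidity and watered twice daily. Pre-emergence spray was applied one day after sowing, formulated in acetone/water 50:50 with 0.5% Tween 20.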

The test system of test [5] is Alopecurus myosuroides (ALOMY). Description: Example B pre-emergence herbicidal test, ALOMY. To be noted: Alopecurus myosuroides, 312 h, rate 250 g/ha, evaluated after 13 days, 100=total damage to plant, 0=no damage to plant. The essentials: as §2
Test [6] deals with Lolium perenne (LOLPE). Description: Example B pre-emergence herbicidal test, LOLPE. As to conditions: Lolium perenne, 312 h, rate 250 g/ha, evaluated after 13 days, 100=total damage to plant, 0=no damage to plant. The essentials:
as §2

In test [7] the test system is Echinochloa crus-galli (ECHCG). Description: Example B post-emergence herbicidal test, ECHCG. As to conditions: Echinochloa crus-galli, 312 h, rate 250 g/ha, evaluated after 13 days, scale 0-100, read-out: Post-emergence activity ECHCG (100=total damage to plant; 0=no damage to plant). The essentials:
as §1

In test [8] the test system is Avena fatua (AVEFA). Description: Example B pre-emergence herbicidal test, AVEFA. To be noted: Avena fatua, 312 h, rate 250 g/ha, evaluated after 13 days, 100=total damage to plant, 0=no damage to plant. The essentials:
as §2

Molecules are shown by their SMILES.

On to `Cc1cc(C)c(C2C(=O)CC(CC3CCN(C(=O)N4CCOCC4)CC3)C2=O)c(C)c1` (stereo not shown) [Compound T100], for which the pest or weed control at 250 g/ha in test [1] is 80%; in test [2], 90%; in test [3] it was 90%; in test [4], 70%; in test [5], 60%; in test [6], 90%. For the same compound, the pest or weed control at 250 g/ha in test [7] and in test [8] was 60% throughout.
Consider `C=CCOC(=O)N1CCC(CC2CC(=O)C(c3c(C)cc(C)cc3C)C2=O)CC1` (stereo not shown) [Compound T101], for which the pest or weed control at 250 g/ha in test [1] came out at 40%; in test [2], 40%; in test [3], 40%; in test [4], 50%; in test [5], 20%; in test [6] it was 50%. Further, the results for the pest or weed control at 250 g/ha in test [7] and in test [8] were 20% and 30%, respectively.
With `C=COC(=O)N1CCC(CC2CC(=O)C(c3c(C)cc(C)cc3C)C2=O)CC1` (stereo not shown) [Compound T102], the pest or weed control at 250 g/ha in test [1] was 80%; in test [2] it was 90%; in test [3], 90%; in test [4] it was 50%; in test [5], 50%; in test [6], 70%. For the same compound, the values for the pest or weed control at 250 g/ha in test [7] and in test [8] were 40% and 30%, respectively.
As for `Cc1cc(C)c(C2C(=O)CC(CC3CCN(C(=O)OCCCl)CC3)C2=O)c(C)c1` (stereo not shown) [Compound T103], the pest or weed control at 250 g/ha is 50% in test [1]; 50% in test [2]; 60% in test [3]; 10% in test [4]; 30% in test [5]; 30% in test [6]. The pest or weed control at 250 g/ha in test [7] stood at 30%; in test [8], 20%.
Take `CC(C)=CC(=O)N1CCC(CC2CC(=O)C(c3c(C)cc(C)cc3C)C2=O)CC1` (stereo not shown) [Compound T104]: the pest or weed control at 250 g/ha in test [1] turned out to be 80%; in test [2], 70%; in test [3] it was 90%; in test [4] it was 90%; in test [5], 60%; in test [6], 70%. The pest or weed control at 250 g/ha worked out at 70% in test [7] and 60% in test [8].
As to `Cc1cc(C)c(C2C(=O)CC(CC3CCN(C(=O)C(Cl)(Cl)Cl)CC3)C2=O)c(C)c1` (stereo not shown) [Compound T105], the pest or weed control at 250 g/ha worked out at 50% in test [1]; 30% in test [2]; 40% in test [3]; 40% in test [4]; 20% in test [5]; 60% in test [6]. In addition, the pest or weed control at 250 g/ha in test [7] and in test [8] was 30% throughout.
Regarding `Cc1cc(C)c(C2C(=O)CC(CC3CCN(C(=O)c4cc(F)c(Cl)nc4Cl)CC3)C2=O)c(C)c1` (stereo not shown) [Compound T106], the pest or weed control at 250 g/ha in test [1] stood at 30%; in test [2], 40%; in test [3], 10%; in test [4] it was 20%; in test [5], 20%; in test [6] it was 20%. Further, the pest or weed control at 250 g/ha in test [7] and in test [8] was 30% in each case.
On to `Cc1cc(C)c(C2C(=O)CC(CC3CCN(C(=O)OC(C)C)CC3)C2=O)c(C)c1` (stereo not shown) [Compound T107], for which the pest or weed control at 250 g/ha stood at 90% in test [1]; 70% in test [2]; 90% in test [3]; 70% in test [4]; 80% in test [5]; 70% in test [6]. The pest or weed control at 250 g/ha in test [7] and in test [8] was 60% throughout.
For `CCOC(=O)N1CCC(CC2CC(=O)C(c3c(C)cc(C)cc3C)C2=O)CC1` (stereo not shown) [Compound T108], the pest or weed control at 250 g/ha in test [1] was determined as 70%; in test [2] it was 70%; in test [3], 70%; in test [4] it was 60%; in test [5], 10%; in test [6], 50%. For the same compound, the pest or weed control at 250 g/ha in test [7] and in test [8] was 40% throughout.
On to `Cc1cc(C)c(C2C(=O)CC(CC3CCN(C(=O)c4cccs4)CC3)C2=O)c(C)c1` (stereo not shown) [Compound T110], for which the pest or weed control at 250 g/ha in test [1] amounted to 50%; in test [2], 30%; in test [3], 80%; in test [4], 70%; in test [5], 30%; in test [6] it was 50%. The values for the pest or weed control at 250 g/ha in test [7] and in test [8] were 40% and 30%, respectively.
For `Cc1cc(C)c(C2C(=O)CC(CC3CCN(S(=O)(=O)C(F)(F)F)CC3)C2=O)c(C)c1` (stereo not shown) [Compound T112], the pest or weed control at 250 g/ha in test [1] turned out to be 30%; in test [2], 40%; in test [3] it was 30%; in test [4], 30%; in test [5] it was 40%; in test [6], 50%. Further, the pest or weed control at 250 g/ha in test [7] was determined as 30%; in test [8] it was 20%.
In the case of `Cc1cc(C)c(C2C(=O)CC(CC3CCN(C(=O)CC(C)C)CC3)C2=O)c(C)c1` (stereo not shown) [Compound T113], the pest or weed control at 250 g/ha in test [1] is 100%; in test [2] it was 90%; in test [3], 100%; in test [4], 90%; in test [5] it was 60%; in test [6], 70%. Besides, the pest or weed control at 250 g/ha in test [7] and in test [8] was 70% in each case.
As for `Cc1cc(C)c(C2C(=O)CC(CC3CCN(C(=O)C4CCCC4)CC3)C2=O)c(C)c1` (stereo not shown) [Compound T114], the pest or weed control at 250 g/ha is 50% in test [1]; 40% in test [2]; 40% in test [3]; 60% in test [4]; 50% in test [5]; 40% in test [6]. For the same compound, the pest or weed control at 250 g/ha was found to be 30% in test [7] and 20% in test [8].
For the compound `Cc1cc(C)c(C2C(=O)CC(CC3CCN(C(=O)c4c(C)noc4C)CC3)C2=O)c(C)c1` (stereo not shown) [Compound T118], the pest or weed control at 250 g/ha in test [1] turned out to be 30%; in test [2], 60%; in test [3], 80%; in test [4], 30%; in test [5], 40%; in test [6], 40%. For the same compound, the pest or weed control at 250 g/ha worked out at 40% in test [7] and 20% in test [8].
Regarding `Cc1cc(C)c(C2C(=O)CC(CC3CCN(C(=O)c4cc(C)on4)CC3)C2=O)c(C)c1` (stereo not shown) [Compound T119], the pest or weed control at 250 g/ha in test [1] worked out at 90%; in test [2] it was 90%; in test [3], 80%; in test [4], 100%; in test [5], 40%; in test [6], 80%. Besides, the pest or weed control at 250 g/ha worked out at 90% in test [7] and 30% in test [8].
Turning to `Cc1cc(C)c(C2C(=O)CC(CC3CCN(C(=O)N4CCCCC4)CC3)C2=O)c(C)c1` (stereo not shown) [Compound T120], the pest or weed control at 250 g/ha in test [1] is 30%; in test [2], 30%; in test [3], 20%; in test [4], 30%; in test [5], 30%; in test [6] it was 20%. Further, the pest or weed control at 250 g/ha in test [7] and in test [8] was 10% in each case.
Take `Cc1cc(C)c(C2C(=O)CC(CC3CCN(C(=O)c4cc(C)nn4C)CC3)C2=O)c(C)c1` (stereo not shown) [Compound T121]: the pest or weed control at 250 g/ha in test [1] amounted to 90%; in test [2], 80%; in test [3] it was 100%; in test [4] it was 90%; in test [5], 30%; in test [6], 80%. For the same compound, the values for the pest or weed control at 250 g/ha in test [7] and in test [8] were 80% and 60%, respectively.

For the origin of these results see US9096560B2, “5-heterocyclylalkyl-3-hydroxy-2-phenylcyclopent-2-enones as herbicides” (Syngenta Limited, priority 2008, dated 2015).
